Tests used:
SR = assay: cells; format: cell-based; details: SR (Leukemia)
[1] = system: SN4741 cells overexpressing LRRK2 wild-type; assay: Neuroprotection from LRRK2-mediated dopaminergic cell death (H2O2, crystal violet); format: cell-based, murine; details: for Percent Cell Death: LRRK2 WT, 100 μM hydrogen peroxide
Method: (§1) SN4741, a murine dopaminergic cell line were cultured in DMEM containing 10 FBS at 37° C., respectively. SN4741 cells (1.5×10^4/well) were seeded in 48 well plates 1 day before transient transfection with 1 μg of the pcDNA3.1 plasmids of either vector, LRRK wildtype cDNA, LRRK G2019S cDNA, by standard CaCl2 precipitation. Two days after transfection, cells were treated with 100 μM hydrogen peroxide for 1 day and cell viability was measured by crystal violet assay. For compound treatment, the test compounds were added at 0.05 μM, 0.5 μM and 5 μM and the cells were incubated for 1 hour prior to the addition of hydrogen peroxide.
(§2) SN4741 cells were transfected with plasmids containing the LRRK2 wild-type or G2019S and incubated them for 2 days followed by addition of 100 μM of hydrogen peroxide for 24 h to sensitize them to oxidative stress. Cell survival was assessed using the crystal violet.

[2] = system: SN4741 cells transfected with vector; assay: as above; format: cell-based, murine; details: 100 μM hydrogen peroxide
Method: as §1, §2

[3] = system: SN4741 cells overexpressing LRRK2 G2019S; assay: as above; format: cell-based, murine; details: for Percent Cell Death: 100 μM hydrogen peroxide
Method: as §1, §2

MDA-MB-468 = assay: cells; format: cell-based; details: MDA-MB-468 (Breast Cancer)
OVCAR-8 = assay: cells; format: cell-based; details: OVCAR-8 (Ovarian Cancer)
HT29 = assay: cells; format: cell-based; details: HT29 (Colon Cancer)
human PIM1 = molecular target: T1, human PIM1 (Homo sapiens, UniProt P11309); assay: Inhibition of enzymatic kinase activity (LANCE Ulight); format: biochemical; details: at 1 μM concentration; read-out: PIM1 percentage inhibition
T1 construct: Purified full-length human SYK, ZAP70, PIM1, PYK2; purchased Carna Biosciences
Method: Inhibition of Enzymatic SYK, ZAP70, PYK2, FAK, PIM1, RET, FLT3, JAK2 and LRRK2 Kinase Activity
Compounds of the invention were initially diluted to 10 mM in 100% DMSO (CALBIOCHEM™) for storage and made into kinase buffer solution to create a compound concentration ranging from 1 uM and 10 uM. Serial dilutions of compounds of the invention were dispensed into a 96-well plate (GREINER BIOSCIENCES™) at 6 μL each. Purified full-length human SYK, ZAP70, PIM1, PYK2 and truncated human FAK, RET, FLT3, JAK2, and LRRK2 (CARNA BIOSCIENCES™) were diluted in kinase buffer and added to the compound solutions and pre-incubated for 30 minutes at room temperature (1 hour for PYK2). […] The reaction mixture was incubated for 1 hour (2 hours for PYK2). Following the incubation, the stop solution made with EDTA, water, and Lance detection buffer ([…]™) was added (12 μL each) to stop phosphorylation. […] Substrate phosphorylation was a function of the 665 nm emission measured following the addition of the detection solution and 50 minutes of incubation.

MOLT-4 = assay: cells; format: cell-based; details: MOLT-4 (Leukemia)
M14 = assay: cells; format: cell-based; details: M14 (Melanoma)
CCRF-CEM = assay: cells; format: cell-based; details: CCRF-CEM (Leukemia)
HCC-2998 = assay: cells; format: cell-based; details: HCC-2998 (Colon Cancer)
CAKI-1 = assay: cells; format: cell-based; details: CAKI-1 (Renal Cancer)
[4] = Homo sapiens, read-out: LC50 (the source's name)

T1 sequence (P11309 whole entry): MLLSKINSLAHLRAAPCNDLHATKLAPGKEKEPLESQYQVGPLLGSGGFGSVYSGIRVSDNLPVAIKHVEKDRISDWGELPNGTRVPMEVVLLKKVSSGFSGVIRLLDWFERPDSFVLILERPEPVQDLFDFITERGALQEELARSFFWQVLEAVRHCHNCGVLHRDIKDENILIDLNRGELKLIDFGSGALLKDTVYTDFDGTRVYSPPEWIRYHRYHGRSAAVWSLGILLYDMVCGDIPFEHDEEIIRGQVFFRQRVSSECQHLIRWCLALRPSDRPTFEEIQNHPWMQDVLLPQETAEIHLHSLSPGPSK

`O=c1[nH]ccc2nc(N3CCC(O)CC3)nc(Nc3cccc(C(F)(F)F)c3)c12` [Compound 6, 2-(4-hydroxypiperidin-1-yl)-4-(3-(trifluoromethyl)phenylamino)pyrido[4,3-d]pyrimidine-5(6H)-one] was tested, and the GI50 (SR; Homo sapiens) was 0.708 µM, the IC50 (SR; Homo sapiens) was 2.51 µM and the CC50 (SR; [4]) was 100 µM. For the same compound, the TGI (SR) was 26.9 µM, the “Percent Cell Death” value ([1]; 0.05 uM) was 62.2% and the “Percent Cell Death” value ([1]; 0.5 uM) was 62.2%. For the same compound, the “Percent Cell Death” value ([1]; 5 uM) was 49.7%, the “protective effects against LRRK2-associated cell death” value ([1]; LRRK2 wild-type, at 0.05 uM and higher, vs vector, DMSO or H2O2 controls) was “increased protective effects” and the “Percent Cell Death” value ([2]; 0.05 uM) was 54.2%. The “Percent Cell Death” value ([2]; 0.5 uM) was 57.5%, the “Percent Cell Death” value ([2]; 5 uM) was 42.5% and the “Percent Cell Death” value ([3]; 0.05 uM) was 53.5%. The “Percent Cell Death” value ([3]; 0.5 uM) was 56.9%, the “Percent Cell Death” value ([3]; 5 uM) was 45.8% and the “protective effects against LRRK2-associated cell death” value ([3]; at 0.05 uM and higher, vs vector, DMSO or H2O2 controls) was “increased protective effects”. It also gave a GI50 (MDA-MB-468; Homo sapiens) of 1.78 µM, an IC50 (MDA-MB-468; Homo sapiens) of 4.68 µM and a CC50 (MDA-MB-468; [4]) of 100 µM. For the same compound, the TGI (MDA-MB-468) was 7.08 µM, the GI50 (OVCAR-8; Homo sapiens) was 3.31 µM and the IC50 (OVCAR-8; Homo sapiens) was 5.01 µM. It also gave a CC50 (OVCAR-8; [4]) of 100 µM, a TGI (OVCAR-8) of 40.7 µM and a TGI (HT29) of 95.5 µM. It also gave a GI50 (HT29; Homo sapiens, HT-29) of 3.89 µM, an IC50 (HT29; Homo sapiens, HT-29) of 7.08 µM and a CC50 (HT29; Homo sapiens, HT-29, read-out: LC50 (the source's name)) of 100 µM. For the same compound, the inhibition at 1 µM (human PIM1) was 32%, the GI50 (MOLT-4; Homo sapiens) was 2.24 µM and the IC50 (MOLT-4; Homo sapiens) was 3.63 µM. It also gave an LC50 (MOLT-4; Homo sapiens) of 100 µM, a TGI (MOLT-4) of 7.76 µM and a GI50 (M14; Homo sapiens) of 1.55 µM. It also gave an IC50 (M14; Homo sapiens) of 3.31 µM, a CC50 (M14; [4]) of 32.4 µM and a TGI (M14) of 8.32 µM. For the same compound, the TGI (CCRF-CEM) was 100 µM, the GI50 (CCRF-CEM; Homo sapiens) was 2.09 µM and the IC50 (CCRF-CEM; Homo sapiens) was 4.07 µM. For the same compound, the LC50 (CCRF-CEM; Homo sapiens) was 100 µM, the TGI (HCC-2998) was 38 µM and the GI50 (HCC-2998; Homo sapiens) was 11.2 µM. It also gave an IC50 (HCC-2998; Homo sapiens) of 25.1 µM, a CC50 (HCC-2998; [4]) of 100 µM and a TGI (CAKI-1) of 6.31 µM. It also gave a GI50 (CAKI-1; Homo sapiens) of 0.282 µM, an IC50 (CAKI-1; Homo sapiens) of 1.29 µM and a CC50 (CAKI-1; [4]) of 100 µM.
